Data on 15 molecules can be found in patent publication US20210391038A1, “SPECIFICALLY-SHAPED CRYSTAL OF COMPOUND AND METHOD FOR PRODUCING SAME” (TOWA PHARMACEUTICAL CO., LTD., priority 2018, published 2021).

Counter-ions that a name gives are not always drawn.

A short description of the series: Measurement of critical degree of supersaturation of spherulite. In kind it is physicochemical. The source says: “Supersaturated solution” in the present description means a solution in a state of containing a solute exceeding the solubility. As the degree of supersaturation, “degree of supersaturation” can be used. Regarding the degree of supersaturation, when the concentration (mass concentration (g/g)) of a compound dissolved in a supersaturated solution is defined as C and the solubility of the compound is defined as Cs, the degree of supersaturation S can be represented by the following formula: […]
“Critical degree of supersaturation” in the present description means the lowest degree of supersaturation required to obtain a specifically-shaped crystal. […] The value of a critical degree of supersaturation varies depending on the shape of a crystal. For example, all of values of a critical degree of supersaturation required to obtain a plate crystal, a critical degree of supersaturation required to obtain a needle crystal, and a critical degree of supersaturation required to obtain a spherulite are different. The critical degree of supersaturation required to obtain a spherulite is higher than the critical degree of supersaturation required to obtain a plate crystal or a needle crystal.
The actual measured value of the critical degree of supersaturation (S*) can be measured as follows:
(1) 100 particles are observed by SEM. (2) 5 to 10 particles whose shape is close to a desired specific shape are selected, and the shape is evaluated. In particular, when the desired specific shape is a sphere, the sphericity is evaluated. (3) Based on the evaluation index of the shape, whether the selected particles have the desired specific shape or not is determined. In particular, when the desired specific shape is a sphere, the case where the sphericity is 0.60 or more is determined as a spherulite. (4) The above-mentioned operation is performed for each sample having a different degree of supersaturation during crystallization, and the minimum value of a degree of supersaturation having the specifically-shaped particles is determined as the critical degree of supersaturation. The difference between the maximum value of a degree of supersaturation not having the specifically-shaped particles and the critical degree of supersaturation should be 20% or less.
The critical degree of supersaturation of a spherulite of ketotifen fumarate was determined as follows. To 2.0 g of ketotifen fumarate, 10 mL (5 v/w) of methanol was added, followed by reflux to completely dissolve. This solution was added dropwise to 50 mL of isopropanol at 20° C. to prepare a supersaturated solution of ketotifen fumarate. The degree of supersaturation of the supersaturated solution at the end of dropwise addition was 9.0. The supersaturated solution was crystallized. The crystal was collected by filtration, followed by drying under reduced pressure at 40° C., thus obtaining a crystal of ketotifen fumarate.
Similarly, when a substrate and a solvent different from those mentioned above are used, a plurality of samples having a different degree of supersaturation are prepared and crystallized, and then the critical degree of supersaturation of the spherulite was measured.

As to `CC(C)[C@H](N)C(=O)OCCOCn1cnc2c(=O)[nH]c(N)nc21` [Valacyclovir hydrochloride], the “Critical degree of supersaturation S Experimental value” (entry 56, solvent 1 H2O, solvent 2 2-BuOH, solvent 2/solvent 1 ratio 35, crystallization 10 °C) is given as 48.6.

`COc1cccc(C2(O)CCCCC2CN(C)C)c1` (stereo not drawn) [Tramadol hydrochloride]: the “actual measured value of the critical degree of supersaturation” value (from here on “actual measured value”) is recorded as 4.2. Besides, the “Critical degree of supersaturation S Experimental value” (entry 36, solvent 1 MeOH, solvent 2 i-PrOAc, solvent 2/solvent 1 ratio 20, crystallization 10 °C) is reported as 4.7. Besides, for the setting “entry 37, solvent 1 IPA, solvent 2 TBME, solvent 2/solvent 1 ratio 30, crystallization 10 °C”, the “Critical degree of supersaturation S Experimental value” came out at 11.1. The “Critical degree of supersaturation S Experimental value” (entry 38, solvent 1 EtOH, solvent 2 TBME, solvent 2/solvent 1 ratio 30, crystallization 10 °C) was 22.4.

Take `CC[C@H]1OC(=O)[C@H](C)[C@@H](O[C@H]2C[C@@](C)(OC)[C@@H](O)[C@H](C)O2)[C@H](C)[C@@H](O[C@@H]2O[C@H](C)C[C@H](N(C)C)[C@H]2O)[C@](C)(OC)C[C@@H](C)C(=O)[C@H](C)[C@@H](O)[C@]1(C)O` [Clarithromycin]: the “actual measured value” value is 17. Also, where the note is “entry 8, solvent 1 THF, solvent 2 H2O, solvent 2/solvent 1 ratio 25, crystallization 0 °C”, the “Critical degree of supersaturation S Experimental value” is listed as 11. For the setting “entry 9, solvent 1 THF, solvent 2 H2O, solvent 2/solvent 1 ratio 70, crystallization 0 °C”, the “Critical degree of supersaturation S Experimental value” is listed as 26. In addition, the “Critical degree of supersaturation S Experimental value” (entry 10, solvent 1 THF, solvent 2 H2O, solvent 2/solvent 1 ratio 75, crystallization 10 °C) worked out at 17.

On to `COC(=O)[C@H](c1ccccc1Cl)N1CCc2sccc2C1` [Clopidogrel sulfate], for which, where the note is “entry 3, solvent 1 H2O, solvent 2 2-BuOH, solvent 2/solvent 1 ratio 222, crystallization 20 °C”, the “Critical degree of supersaturation S Experimental value” was found to be 9.7.

As for `Nc1nc(CC(=O)Nc2ccc(CCNC[C@H](O)c3ccccc3)cc2)cs1` [Mirabegron], the “actual measured value” value was determined as 5.6. The “Critical degree of supersaturation S Experimental value” (entry 48, solvent 1 H2O, solvent 2 MeOH, solvent 2/solvent 1 ratio 1.25, crystallization 0 °C) is listed as 1.6. Besides, the “Critical degree of supersaturation S Experimental value” (entry 49, solvent 1 H2O, solvent 2 MeOH, solvent 2/solvent 1 ratio 1.25, crystallization 10 °C) amounted to 3.2. Besides, the “Critical degree of supersaturation S Experimental value” (entry 50, solvent 1 MeOH, solvent 2 TBME, solvent 2/solvent 1 ratio 10, crystallization 0 °C) is listed as 4. Besides, for the setting “entry 51, solvent 1 MeOH, solvent 2 TBME, solvent 2/solvent 1 ratio 10, crystallization 10 °C”, the “Critical degree of supersaturation S Experimental value” was determined as 4.3. The “Critical degree of supersaturation S Experimental value” (entry 52, solvent 1 EtOH, solvent 2 TBME, solvent 2/solvent 1 ratio 10, crystallization 0 °C) was 5.6. For the same molecule, the “Critical degree of supersaturation S Experimental value” (entry 53, solvent 1 EtOH, solvent 2 TBME, solvent 2/solvent 1 ratio 10, crystallization 10 °C) worked out at 5.4.

As to `CCCCCCOC(=O)N=C(N)c1ccc(NCc2nc3cc(C(=O)N(CCC(=O)OCC)c4ccccn4)ccc3n2C)cc1` [Dabigatran etexilate methanesulfonate], the “actual measured value” value is reported as 4.3. For the same molecule, the “Critical degree of supersaturation S Experimental value” (entry 24, solvent 1 MeOH, solvent 2 TBME, solvent 2/solvent 1 ratio 10, crystallization 20 °C) is listed as 3.3. The “Critical degree of supersaturation S Experimental value” (entry 25, solvent 1 EtOH, solvent 2 EtOAc, solvent 2/solvent 1 ratio 10, crystallization 5 °C) turned out to be 2.9. Besides, under “entry 26, solvent 1 EtOH, solvent 2 EtOAe, solvent 2/solvent 1 ratio 10, crystallization 20 °C”, the “Critical degree of supersaturation S Experimental value” turned out to be 4.3. For the same molecule, the “Critical degree of supersaturation S Experimental value” (entry 27, solvent 1 EtOH, solvent 2 EtOAc, solvent 2/solvent 1 ratio 10, crystallization 35 °C) is listed as 5.2.

As for `CN(C)CC/C=C1/c2ccccc2COc2ccc(CC(=O)O)cc21` [Olopatadine], the “actual measured value” value was 9.7. Further, for the setting “entry 58, solvent 1 MeOH, solvent 2 EtOAc, solvent 2/solvent 1 ratio 20, crystallization 15 °C”, the “Critical degree of supersaturation S Experimental value” was determined as 9.7.

As to `Cn1c(=O)c2[nH]cnc2n(C)c1=O.[Mg]` [Theophylline magnesium salt], the “actual measured value” value was 3.5. In addition, the “Critical degree of supersaturation S Experimental value” (entry 28, solvent 1 MeOH, solvent 2 H2O, solvent 2/solvent 1 ratio 3, crystallization 0 °C) turned out to be 3.5. In addition, the “Critical degree of supersaturation S Experimental value” (entry 29, solvent 1 EtOH, solvent 2 H2O, solvent 2/solvent 1 ratio 3, crystallization 0 °C) turned out to be 3.9. For the same molecule, the “Critical degree of supersaturation S Experimental value” (entry 30, solvent 1 Acetone, solvent 2 H2O, solvent 2/solvent 1 ratio 3, crystallization 0 °C) is on record as 6.3. Besides, the “Critical degree of supersaturation S Experimental value” (entry 31, solvent 1 IPA, solvent 2 H2O, solvent 2/solvent 1 ratio 3, crystallization 0 °C) is listed as 6.6.

For `N[C@@H](CCC(=O)N[C@@H](CS)C(=O)NCC(=O)O)C(=O)O` [Glutathione], the “actual measured value” value was found to be 18.7. Besides, the “Critical degree of supersaturation S Experimental value” (entry 47, solvent 1 H2O, solvent 2 EtOH, solvent 2/solvent 1 ratio 5, crystallization 20 °C) came to 18.7.

As to `Cc1cccc(C)c1NC(=O)CC12CCCN1CCC2.Cl` [Pilsicainide hydrochloride anhydride], the “actual measured value” value is listed as 27. Further, the “Critical degree of supersaturation S Experimental value” (entry 35, solvent 1 IPA, solvent 2 Toluene, solvent 2/solvent 1 ratio 10, crystallization 5 °C) is recorded as 27.

In the case of `CC[C@H]1OC(=O)[C@H](C)[C@@H](O[C@H]2C[C@@](C)(OC)[C@@H](O)[C@H](C)O2)[C@H](C)[C@@H](O[C@@H]2O[C@H](C)C[C@H](N(C)C)[C@H]2O)[C@](C)(O)C[C@@H](C)CN(C)[C@H](C)[C@@H](O)[C@]1(C)O` [Azithromycin monohydrate], the “Critical degree of supersaturation S Experimental value” is given as 3.2 (entry 11, solvent 1 IPA, solvent 2 H2O, solvent 2/solvent 1 ratio 10, crystallization 0 °C); 1.6 (entry 14, solvent 1 IPA, solvent 2 H2O, solvent 2/solvent 1 ratio 20, crystallization 0 °C); 6.2 (entry 15, solvent 1 Acetone, solvent 2 H2O, solvent 2/solvent 1 ratio 10, crystallization 0 °C); 7.1 (entry 16, solvent 1 EtOH, solvent 2 H2O, solvent 2/solvent 1 ratio 20, crystallization 0 °C); 7.5 (entry 17, solvent 1 MeOH, solvent 2 H2O, solvent 2/solvent 1 ratio 20, crystallization 0 °C); 11.1 (entry 18, solvent 1 IPA, solvent 2 H2O, solvent 2/solvent 1 ratio 10, crystallization 20 °C).

As to `Cc1c(OCC(F)(F)F)ccnc1C[S+]([O-])c1nc2ccccc2[nH]1` (stereo not drawn) [Lansoprazole], the “actual measured value” value is on record as 10.9. Also, the “Critical degree of supersaturation S Experimental value” (entry 2, solvent 1 MeOH, solvent 2 H2O, solvent 2/solvent 1 ratio 3, crystallization 0 °C) is 6.9. Also, the “Critical degree of supersaturation S Experimental value” (entry 20, solvent 1 MeOH, solvent 2 H2O, solvent 2/solvent 1 ratio 3, crystallization 15 °C) is on record as 12.6.

Regarding `CN(C)CCC[C@@]1(c2ccc(F)cc2)OCc2cc(C#N)ccc21` [Escitalopram oxalate], the “actual measured value” value is given as 3.7. Under “entry 21, solvent 1 H2O, solvent 2 2-BuOH, solvent 2/solvent 1 ratio 30, crystallization 0 °C”, the “Critical degree of supersaturation S Experimental value” was determined as 2.8. Besides, the “Critical degree of supersaturation S Experimental value” (entry 22, solvent 1 H2O, solvent 2 2-BuOH, solvent 2/solvent 1 ratio 15, crystallization 0 °C) is 3.7. The “Critical degree of supersaturation S Experimental value” (entry 23, solvent 1 H2O, solvent 2 IPA, solvent 2/solvent 1 ratio 15, crystallization 0 °C) is 4.

In the case of `CN1CCC(=C2c3ccccc3CC(=O)c3sccc32)CC1` [Ketotifen fumarate], the “Critical degree of supersaturation S Experimental value” came to 2.5 (entry 4, solvent 1 MeOH, solvent 2 IPA, solvent 2/solvent 1 ratio 5, crystallization 0 °C); 4 (entry 5, solvent 1 MeOH, solvent 2 IPA, solvent 2/solvent 1 ratio 5, crystallization 50 °C); 1.6 (entry 6, solvent 1 MeOH, solvent 2 2-BuOH, solvent 2/solvent 1 ratio 5, crystallization 0 °C); 4.4 (entry 7, solvent 1 MeOH, solvent 2 2-BuOH, solvent 2/solvent 1 ratio 5, crystallization 20 °C). Where the note is “methanol to isopropanol 1:5, temperature during crystallization 20° C.”, the “critical degree of supersaturation of a spherulite” value was determined as 4.0.

Regarding `Cc1ccccc1C(=O)Nc1ccc(C(=O)N2CCCC(O)c3cc(Cl)ccc32)c(C)c1` (stereo not drawn) [Tolvaptan], the “actual measured value” value is 4.8. Where the note is “entry 54, solvent 1 MeOH, solvent 2 H2O, solvent 2/solvent 1 ratio 0.4, crystallization 0 °C”, the “Critical degree of supersaturation S Experimental value” stood at 4.8. The “Critical degree of supersaturation S Experimental value” (entry 55, solvent 1 MeOH, solvent 2 H2O, solvent 2/solvent 1 ratio 0.4, crystallization 10 °C) was 7.1.
